Measured values as given in article PMC10861534, “Poly-γ-glutamylation of biomolecules” (Nature Communications, 2024).

What was measured:
Tm-DHFR = target: T1, Tm-DHFR (Thermotoga maritima, UniProt Q60034); assay: 1H NMR of reaction; type: biochemical; conditions: 1 mM folate-2, 2 mM NADPH, pH 7.0, 37 °C; reduced to tetrahydrofolate-2
T1 construct: gene folA; synthesized ORF in pProEX-HTb, E. coli BL21(DE3) LOBSTR; TALON and SEC
T1 sequence (Q60034 1-169): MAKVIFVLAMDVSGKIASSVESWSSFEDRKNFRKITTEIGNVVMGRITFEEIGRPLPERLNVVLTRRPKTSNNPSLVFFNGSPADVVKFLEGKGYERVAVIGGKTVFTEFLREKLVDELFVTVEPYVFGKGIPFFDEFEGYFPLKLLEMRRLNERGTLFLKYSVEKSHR

Mtb-FPGS = target: T2, Mtb-FPGS (Mycobacterium tuberculosis, UniProt I6Y0R5)
T2 construct: gene folC

Mtb-FbiB = Mtb-FbiB (Mycobacterium tuberculosis, UniProt P9WP79)
Af-CofE = target: T3, Af-CofE (Archaeoglobus fulgidus, UniProt O28028); assay: LC-MS of reaction products; type: biochemical; conditions: 2 mM analogue, 50 uM F420-1, 2 mM GTP, 2 mM MgCl2/MnCl2, pH 8.5, 37 °C; chain terminator
T3 construct: codon-optimized ORF in pProEX-HTb, E. coli BL21(DE3) LOBSTR; N-terminal His6-tag removed by rTEV; co-purified flavins washed off with urea/KBr; homodimer

hFPGS = target: T4, hFPGS (Homo sapiens, UniProt Q05932); assay: LC-MS of reaction products; type: biochemical; conditions: 5 mM analogue, 0.5 mM folate, 5 mM ATP, 10 mM MgCl2, pH 8.5, 37 °C; chain terminator
T4 construct: gene FPGS; ORF in pFastBacHTa, N-terminal His6-tag, Sf9 insect cells
T4 sequence (Q05932 43-587): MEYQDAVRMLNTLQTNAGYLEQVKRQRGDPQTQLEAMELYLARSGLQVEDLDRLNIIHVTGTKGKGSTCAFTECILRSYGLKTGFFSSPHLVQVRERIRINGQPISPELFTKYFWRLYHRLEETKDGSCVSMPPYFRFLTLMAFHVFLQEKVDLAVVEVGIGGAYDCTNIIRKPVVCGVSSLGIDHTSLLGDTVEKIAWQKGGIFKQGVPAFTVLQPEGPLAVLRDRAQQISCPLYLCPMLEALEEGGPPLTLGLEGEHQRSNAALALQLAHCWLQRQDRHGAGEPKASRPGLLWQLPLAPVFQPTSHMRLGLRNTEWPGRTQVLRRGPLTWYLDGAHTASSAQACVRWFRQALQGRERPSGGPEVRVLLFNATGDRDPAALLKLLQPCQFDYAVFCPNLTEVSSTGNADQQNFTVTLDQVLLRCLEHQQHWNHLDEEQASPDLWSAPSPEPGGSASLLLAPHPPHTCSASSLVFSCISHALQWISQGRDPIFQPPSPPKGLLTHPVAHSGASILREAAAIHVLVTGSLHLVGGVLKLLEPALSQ

T2 sequence (I6Y0R5 whole entry): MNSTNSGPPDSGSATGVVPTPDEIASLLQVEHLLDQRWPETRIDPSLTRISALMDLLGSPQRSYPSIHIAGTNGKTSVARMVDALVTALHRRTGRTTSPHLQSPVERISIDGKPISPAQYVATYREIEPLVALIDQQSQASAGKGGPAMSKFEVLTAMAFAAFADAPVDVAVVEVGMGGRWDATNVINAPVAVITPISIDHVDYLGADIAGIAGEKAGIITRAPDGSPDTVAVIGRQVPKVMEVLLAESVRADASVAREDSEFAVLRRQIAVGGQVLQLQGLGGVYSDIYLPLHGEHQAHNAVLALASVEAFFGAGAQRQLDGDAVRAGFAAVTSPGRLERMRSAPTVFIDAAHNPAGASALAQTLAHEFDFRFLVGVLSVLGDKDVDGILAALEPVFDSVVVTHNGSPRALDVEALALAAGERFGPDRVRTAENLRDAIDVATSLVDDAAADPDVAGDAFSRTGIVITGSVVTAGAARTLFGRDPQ
T3 sequence (O28028 whole entry): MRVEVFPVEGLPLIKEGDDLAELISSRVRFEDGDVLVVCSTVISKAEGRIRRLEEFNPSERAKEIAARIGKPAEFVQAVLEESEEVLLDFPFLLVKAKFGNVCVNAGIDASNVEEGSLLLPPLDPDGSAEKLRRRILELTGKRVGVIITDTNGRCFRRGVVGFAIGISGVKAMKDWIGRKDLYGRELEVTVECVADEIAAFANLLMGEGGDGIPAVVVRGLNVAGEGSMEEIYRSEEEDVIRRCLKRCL
Chain of Mtb-FbiB (P9WP79 whole entry): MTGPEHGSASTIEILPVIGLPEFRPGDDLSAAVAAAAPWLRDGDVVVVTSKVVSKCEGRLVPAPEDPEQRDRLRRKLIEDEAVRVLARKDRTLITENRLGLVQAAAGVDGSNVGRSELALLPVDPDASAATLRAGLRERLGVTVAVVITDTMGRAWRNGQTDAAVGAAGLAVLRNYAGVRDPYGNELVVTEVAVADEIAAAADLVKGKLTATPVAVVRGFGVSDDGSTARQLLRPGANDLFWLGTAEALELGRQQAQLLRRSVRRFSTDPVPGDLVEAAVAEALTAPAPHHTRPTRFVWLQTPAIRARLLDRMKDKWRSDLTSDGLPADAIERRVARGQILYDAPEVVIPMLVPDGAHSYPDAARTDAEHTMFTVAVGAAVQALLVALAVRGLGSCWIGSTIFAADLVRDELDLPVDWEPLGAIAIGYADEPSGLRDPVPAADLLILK

SMILES: Nc1nc2ncc(CNc3ccc(C(=O)N[C@@H](CCC(=O)N[C@@H](CCC(=O)O)C(=O)O)C(=O)O)cc3)nc2c(=O)[nH]1 [folate-2, pteroyldi-γ-L-glutamic acid]
- 1H NMR of reaction (Tm-DHFR): pre-incubation with Tm-DHFR initiated the production of tetrahydrofolate-2
- LC-MS of reaction products (Mtb-FPGS): addition of only a single L-glutamate molecule to afford folate-3 as the major product

SMILES: N[C@@H](CC[N+](=O)[O-])C(=O)O [4-nitro-L-2-aminobutyric acid, (2S)-2-Amino-4-nitrobutanoic acid]
- LC-MS of reaction products (Mtb-FbiB): acts as a substrate across all enzymes and both cofactors
- LC-MS of reaction products (Af-CofE): acts as a substrate across all enzymes and both cofactors
- LC-MS of reaction products (Mtb-FPGS): acts as a substrate across all enzymes and both cofactors
- LC-MS of reaction products (hFPGS): acts as a substrate across all enzymes and both cofactors
